In patent US20210338708A1, “METHOD FOR TREATMENT OF CORONAVIRUS INFECTION” (Renibus Therapeutics, Inc., priority 2020, published 2021):
pEC50: −log10 of the molar value. Several values for one entry are separate records, joined by “and”; a condition that tells them apart may be missing. Identical values can stand only once. Like-named read-outs stand apart in the source and are kept apart here.

Assays:
dengue virus = conditions: by inhibiting synthesis of NSP1; cited from earlier work
yellow fever virus = conditions: by inhibiting synthesis of NSP1; cited from earlier work
SARS-CoV-2 [1] = assay type: cell-based, SARS-CoV-2 (2019-nCoV/USA-WA1/2020 strain); conditions: for Plaque counts: replicates, viral replication, Vero E6, 24 h
SARS-CoV-2 [2] = assay type: cell-based, SARS-CoV-2 (2019-nCoV/USA-WA1/2020 strain)
SARS-CoV-2 [3] = assay type: cell-based, SARS-CoV-2 (2019-nCoV/USA-WA1/2020 strain); conditions: for Plaque counts: replicates, direct inactivation, Vero E6, 24 h
SARS-CoV-2 [4] = assay: Reduction of virus-induced cytopathic effect (visual and neutral red) within secondary assay; assay type: cell-based, SARS-CoV-2 USA_WA1/2020; conditions: Vero 76, 1 hour pretreatment of compound and virus
Method: Confluent or near-confluent cell culture monolayers of Vero 76 cells are prepared in 96-well disposable microplates the day before testing. Cells are maintained in minimum essential medium (MEM) supplemented with 5% FBS. For antiviral assays the same medium is used but with FBS reduced to 2% and supplemented with 50-μg/ml gentamicin. Compounds are dissolved in DMSO, saline or the diluent requested by the submitter. […] The test compound is prepared at four serial log 10 concentrations, usually 0.1, 1.0, 10, and […] or μM (per sponsor preference). Lower concentrations are used when insufficient compound is supplied. Five microwells are used per dilution: three for infected cultures and two for uninfected toxicity cultures. Controls for the experiment consist of six microwells that are infected and not treated (virus controls) and six that are untreated and uninfected (cell controls) on every plate. A known active drug is tested in parallel as a positive control drug using the same method as is applied for test compounds. […]
Growth media is removed from the cells and the test compound is applied in 0.1 ml volume to wells at 2× concentration. […] The dye content in each well is quantified using a spectrophotometer at 540 nm wavelength. […]
Active compounds are further tested in a confirmatory assay. […] The incorporated dye content is quantified as described above to generate the EC50 and CC50 values.

SARS-CoV-2 [5] = assay type: cell-based, SARS-CoV-2 (2019-nCoV/USA-WA1/2020 strain); conditions: viral replication; for % reduction relative to virus control / Virus titer, Average: 11.11 μM; for Virus titer, Rep-1 to Rep-3: 100 μM
Vero E6 cell line = Vero E6 cell line in the presence of SARS-CoV-2; NCATS/NIH data; cited from earlier work
SARS-CoV-2 [6] = assay: Reduction of virus yield (Secondary VYR assay); assay type: cell-based, SARS-CoV-2 USA_WA1/2020; conditions: Vero 76, 1 hour pretreatment of compound and virus, read-out: TEST EC90
Method: Active compounds are further tested in a confirmatory assay. This assay is set up similar to the methodology described above only eight half-log 10 concentrations of inhibitor are tested for antiviral activity and cytotoxicity. After sufficient virus replication occurs (3 days for SARS-CoV-2), a sample of supernatant is taken from each infected well (three replicate wells are pooled) and tested immediately or held frozen at −80° C. for later virus titer determination. After maximum CPE is observed, the viable plates are stained with neutral red dye. The incorporated dye content is quantified as described above to generate the EC50 and CC50 values.
Virus yielded in the presence of test compound is titrated and compared to virus titers from the untreated virus controls. Titration of the viral samples (collected as described in the paragraph above) is performed by endpoint dilution (Reed, L. J., and H. Muench. “A Simple Method of Estimating Fifty Percent Endpoints.” Am J Hyg 27 (1938): 493-98.)
Serial 1/10 dilutions of virus are made and plated into 4 replicate wells containing fresh cell monolayers of Vero 76 cells. Plates are then incubated, and cells are scored for the presence or absence of virus after a distinct CPE is observed, and the CCID50 calculated using the Reed-Muench method. […]

Structure (SMILES): C=CC1=C(C)c2cc3[n-]c(cc4[n-]c(cc5nc(cc1n2)C(C)=C5C=C)c(C)c4CCC(=O)O)c(CCC(=O)O)c3C.[Sn+2] [RBT-9, Stannous protoporphyrin]
- inhibition of viral infection (dengue virus): inhibit viral infection
- inhibition of viral infection (yellow fever virus): inhibit viral infection
- Plaque counts (SARS-CoV-2 [1]; 0.005 μM): 363 and 342 and 223 and 294
- Plaque counts (SARS-CoV-2 [1]; 0.015 μM): 136 and 228 and 172 and 164
- Plaque counts (SARS-CoV-2 [1]; 0.046 μM): 170 and 167 and 182 and 259
- Plaque counts (SARS-CoV-2 [1]; 0.14 μM): 293 and 228 and 264 and 211
- Plaque counts (SARS-CoV-2 [1]; 0.41 μM): 292 and 243 and 309 and 304
- Plaque counts (SARS-CoV-2 [1]; 1.23 μM): 290 and 286 and 320 and 294
- Plaque counts (SARS-CoV-2 [1]; 3.70 μM): 130 and 125 (2×) and 153
- Plaque counts (SARS-CoV-2 [1]; 11.11 μM): 143 and 134 and 129 and 145
- Plaque counts (SARS-CoV-2 [1]; 33.33 μM): 89 and 99 and 78 and 79
- Plaque counts (SARS-CoV-2 [1]; 100 μM): 15 (2×) and 12 and 7
- pEC50 (SARS-CoV-2 [1]; read-out: EC50, SARS-CoV-2 replication): 4.34
- CC50 (Vero 76 cells): 39 µM
- CC50 (Vero 76 cells; read-out: VIS CC50, visual, Vero 76): 27 µM
- % reduction relative to virus control (SARS-CoV-2 [2]): 46.2%
- Virus titer, Average (SARS-CoV-2 [2]): 0.98×10^4 PFU/ml
- % reduction relative to virus control (SARS-CoV-2 [2]; 0.411 μM, direct inactivation): No reduction
- Virus titer, Average (SARS-CoV-2 [2]; 0.411 μM, direct inactivation): 1.83 × 10^4 PFU/ml
- Virus titer, Rep-1 to Rep-3 (SARS-CoV-2 [2]; 0.411 μM, direct inactivation): 2.25 × 10^4 PFU/ml and 1.75 × 10^4 PFU/ml and 1.5 × 10^4 PFU/ml
- % reduction relative to virus control (SARS-CoV-2 [2]; 0.411 μM, direct inactivation, listed as SnPP): no reduction
- % reduction relative to virus control (SARS-CoV-2 [2]; 3.7 μM, direct inactivation): 98.6%
- Virus titer, Average (SARS-CoV-2 [2]; 3.7 μM, direct inactivation): 0.25 × 10^4 PFU/ml
- % reduction relative to virus control (SARS-CoV-2 [2]; 3.7 μM, direct inactivation, listed as SnPP): About 98.6%
- cytopathic effect (CPE) of SnPP (Vero E6 cells): did not observe a cytopathic effect (CPE)
- Plaque counts (SARS-CoV-2 [3]; 0.005 μM): 203 and 304 and 260 and 236
- Plaque counts (SARS-CoV-2 [3]; 0.015 μM): 189 and 212
- Plaque counts (SARS-CoV-2 [3]; 0.046 μM): 222 and 332 and 256 and 196
- Plaque counts (SARS-CoV-2 [3]; 0.14 μM): 217 and 354 and 230 and 174
- Plaque counts (SARS-CoV-2 [3]; 0.41 μM): 259 and 194 and 205 and 235
- Plaque counts (SARS-CoV-2 [3]; 1.23 μM): 117 and 64 and 132 and 189
- Plaque counts (SARS-CoV-2 [3]; 3.70 μM): 0 (3×) and 48
- Plaque counts (SARS-CoV-2 [3]; 11.11 μM): 0
- Plaque counts (SARS-CoV-2 [3]; 33.33 μM): 0
- Plaque counts (SARS-CoV-2 [3]; 100 μM): 0
- pEC50 (SARS-CoV-2 [3]; read-out: mean EC50, direct SARS-CoV-2 inactivation): 5.88
- pEC50 (SARS-CoV-2 [4]; neutral red, read-out: NR EC50): 5.82
- pEC50 (SARS-CoV-2 [4]; visual, read-out: VIS EC50): 5.82
- % reduction relative to virus control (SARS-CoV-2 [5]): 48%
- Virus titer, Average (SARS-CoV-2 [5]): 2 × 10^4 pfu/ml
- % reduction relative to virus control (SARS-CoV-2 [5]; listed as SnPP): about 48%
- Virus titer, Average (SARS-CoV-2 [5]; listed as SnPP): 2×10^4
- Virus titer, Rep-1 to Rep-3 (SARS-CoV-2 [5]): not detected
- Virus titer, Rep-1 to Rep-3 (SARS-CoV-2 [5]; listed as SnPP): could not be detected
- CC50 (Vero E6 cell line): > 30 µM
- EC90 (SARS-CoV-2 [6]): 0.97 µM

Structure (SMILES): CCC(CC)COC(=O)[C@H](C)N[P@](=O)(OC[C@H]1O[C@@](C#N)(c2ccc3c(N)ncnn23)[C@H](O)[C@@H]1O)Oc1ccccc1 [Remdesivir, reference compound]
- Plaque counts (SARS-CoV-2 [1]; 0.003 μM): 353 and 324
- Plaque counts (SARS-CoV-2 [1]; 0.008 μM): 195
- Plaque counts (SARS-CoV-2 [1]; 0.023 μM): 245
- Plaque counts (SARS-CoV-2 [1]; 0.07 μM): 233 and 192
- Plaque counts (SARS-CoV-2 [1]; 0.21 μM): 212 and 200
- Plaque counts (SARS-CoV-2 [1]; 0.62 μM): 274 and 270
- Plaque counts (SARS-CoV-2 [1]; 1.85 μM): 64 and 76
- Plaque counts (SARS-CoV-2 [1]; 5.56 μM): 0
- Plaque counts (SARS-CoV-2 [1]; 16.67 μM): 0
- Plaque counts (SARS-CoV-2 [1]; 50 μM): 0
